Experimental data reported in patent US9453051B2, “Cyclosporin derivatives” (priority 2011, dated 2016).

Legend:
[1] = biological target: recombinant human wild type Cyp18 (Cyp18 wt) (Homo sapiens, UniProt P62937); test: biochemical
Description: The determination was performed on a UV/Vis spectrometer at 10° C. cuvette temperature, whereby the device is operated at 390 nm in kinetic-mode (measurement buffer: 35 mM HEPES/NaOH pH 7.8 (AppliChem A1069)). 0.58 nM recombinant human wild type Cyp18 (Cyp18 wt), 2.33 nM bovine serum albumin (BSA) and 1 mg/ml chymotrypsin (Merck) solved in 35 mM HEPES/NaOH pH 7.8 as well as different concentration of each test substance, where appropriate, were in the cuvette. The reaction was started with a stock solution of Suc-Ala-Ala-Pro-Phe-4-nitroanilide (Bachem, 10 mg/ml DMSO) as substrate so that a final substrate concentration of 32 μM resulted. The extinction-time-curves were evaluated after expiry of the fast phase of the reaction i.e. after approximately 60 seconds according to a rate equation of a first-order reaction.

calcineurin = calcineurin (Homo sapiens, UniProt P62937+P63098+Q08209); test: Inhibition of the phosphatase activity of calcineurin (scintillation-proximity-assay, in presence of Cyp18);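 further: calcineurin dephosphorylation of a ³³P-labelled RII phosphopeptide, captured on streptavidin-coated wells and read by scintillation counting, with uninhibited enzyme activity taken as 100%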

Chain of recombinant human wild type Cyp18 (Cyp18 wt) (P62937 whole entry): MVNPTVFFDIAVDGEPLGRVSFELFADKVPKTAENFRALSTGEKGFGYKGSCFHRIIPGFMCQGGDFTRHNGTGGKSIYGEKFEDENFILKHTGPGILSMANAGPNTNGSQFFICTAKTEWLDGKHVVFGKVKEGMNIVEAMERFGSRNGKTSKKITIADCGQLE

Row | Compound | IC50 [1] [µM] | IC50 (calcineurin) [µM]
1 | CC[C@@H]1NC(=O)[C@H]([C@H](O)[C@H](C)Cc2nc3cc(C(=O)N[C@@H](CCC(=O)OCc4ccccc4)C(=O)N[C@@H](CCC(=O)OCc4ccccc4)C(N)=O)ccc3[nH]2)N(C)C(=O)[C@H](C(C)C)N(C)C(=O)[C@H](CC(C)C)N(C)C(=O)[C@H](CC(C)C)N(C)C(=O)[C@@H](C)NC(=O)[C@H](C)NC(=O)[C@H](CC(C)C)N(C)C(=O)[C@H](C(C)C)NC(=O)[C@H](CC(C)C)N(C)C(=O)CN(C)C1=O [Compound 57] | 0.0169 | –
2 | CC[C@@H]1NC(=O)[C@H]([C@H](O)[C@H](C)Cc2nc3cccc(C(=O)O)c3n2C)N(C)C(=O)[C@H](C(C)C)N(C)C(=O)[C@H](CC(C)C)N(C)C(=O)[C@H](CC(C)C)N(C)C(=O)[C@@H](C)NC(=O)[C@H](C)NC(=O)[C@H](CC(C)C)N(C)C(=O)[C@H](C(C)C)NC(=O)[C@H](CC(C)C)N(C)C(=O)CN(C)C1=O [Compound 55] | 0.209 | > 10
3 | CC[C@@H]1NC(=O)[C@H]([C@H](O)[C@H](C)Cc2nc3nc(S)nc(S)c3[nH]2)N(C)C(=O)[C@H](C(C)C)N(C)C(=O)[C@H](CC(C)C)N(C)C(=O)[C@H](CC(C)C)N(C)C(=O)[C@@H](C)NC(=O)[C@H](C)NC(=O)[C@H](CC(C)C)N(C)C(=O)[C@H](C(C)C)NC(=O)[C@H](CC(C)C)N(C)C(=O)CN(C)C1=O [Compound 16] | 0.0151 | 7.5
4 | CC[C@@H]1NC(=O)[C@H]([C@H](O)[C@H](C)Cc2nc3cc(C(=O)N[C@@H](CS)C(=O)N[C@@H](CS)C(N)=O)ccc3[nH]2)N(C)C(=O)[C@H](C(C)C)N(C)C(=O)[C@H](CC(C)C)N(C)C(=O)[C@H](CC(C)C)N(C)C(=O)[C@@H](C)NC(=O)[C@H](C)NC(=O)[C@H](CC(C)C)N(C)C(=O)[C@H](C(C)C)NC(=O)[C@H](CC(C)C)N(C)C(=O)CN(C)C1=O [Compound 61] | ~0.01 | –
5 | CC[C@@H]1NC(=O)[C@H]([C@H](O)[C@H](C)Cc2nc3cc(C(=O)NCCN4CCNCC4)ccc3[nH]2)N(C)C(=O)[C@H](C(C)C)N(C)C(=O)[C@H](CC(C)C)N(C)C(=O)[C@H](CC(C)C)N(C)C(=O)[C@@H](C)NC(=O)[C@H](C)NC(=O)[C@H](CC(C)C)N(C)C(=O)[C@H](C(C)C)NC(=O)[C@H](CC(C)C)N(C)C(=O)CN(C)C1=O [Compound 64] | 0.0172 | –
6 | CC[C@@H]1NC(=O)[C@H]([C@H](O)[C@H](C)Cc2nc3cc(C(=O)N[C@@H](CS)C(=O)N[C@@H](C)C(N)=O)ccc3[nH]2)N(C)C(=O)[C@H](C(C)C)N(C)C(=O)[C@H](CC(C)C)N(C)C(=O)[C@H](CC(C)C)N(C)C(=O)[C@@H](C)NC(=O)[C@H](C)NC(=O)[C@H](CC(C)C)N(C)C(=O)[C@H](C(C)C)NC(=O)[C@H](CC(C)C)N(C)C(=O)CN(C)C1=O [Compound 60] | ~0.01 | –
7 | CC[C@@H]1NC(=O)[C@H]([C@H](O)[C@H](C)Cc2nc3cc(C(=O)N[C@@H](CCC(=O)O)C(=O)N[C@@H](CCC(=O)O)C(N)=O)ccc3[nH]2)N(C)C(=O)[C@H](C(C)C)N(C)C(=O)[C@H](CC(C)C)N(C)C(=O)[C@H](CC(C)C)N(C)C(=O)[C@@H](C)NC(=O)[C@H](C)NC(=O)[C@H](CC(C)C)N(C)C(=O)[C@H](C(C)C)NC(=O)[C@H](CC(C)C)N(C)C(=O)CN(C)C1=O [Compound 63] | 0.0051 | –
8 | CC[C@@H]1NC(=O)[C@H]([C@H](O)[C@H](C)Cc2nc3cc(C(=O)N[C@@H](CO)C(=O)N[C@@H](CCC(=O)O)C(N)=O)ccc3[nH]2)N(C)C(=O)[C@H](C(C)C)N(C)C(=O)[C@H](CC(C)C)N(C)C(=O)[C@H](CC(C)C)N(C)C(=O)[C@@H](C)NC(=O)[C@H](C)NC(=O)[C@H](CC(C)C)N(C)C(=O)[C@H](C(C)C)NC(=O)[C@H](CC(C)C)N(C)C(=O)CN(C)C1=O [Compound 62] | 0.0044 | –
9 | CC[C@@H]1NC(=O)[C@H]([C@H](O)[C@H](C)Cc2nc3cc(C(=O)O)ccc3o2)N(C)C(=O)[C@H](C(C)C)N(C)C(=O)[C@H](CC(C)C)N(C)C(=O)[C@H](CC(C)C)N(C)C(=O)[C@@H](C)NC(=O)[C@H](C)NC(=O)[C@H](CC(C)C)N(C)C(=O)[C@H](C(C)C)NC(=O)[C@H](CC(C)C)N(C)C(=O)CN(C)C1=O [Compound 6] | 0.7 | –
